Earlier results, collected in patent US20250031692A1, “HIGH LOAD SUSPENSION CONCENTRATE COMPOSITIONS” (ADAMA AGAN LTD., priority 2021, published 2025).

Assays:
[1] = test system: Echinochloa spp. and other annual weeds; conditions: 150-200 g a.i./ha; long residual activity
[2] = test system: VLCFAE activity of the microsomal fraction of etiolated barnyard millet seedlings
[3] = target: T1, recombinant Fatty Acid Elongation 1 (FAE1) of Arabidopsis (Arabidopsis thaliana, UniProt Q38860)
T1 sequence (Q38860 1-506): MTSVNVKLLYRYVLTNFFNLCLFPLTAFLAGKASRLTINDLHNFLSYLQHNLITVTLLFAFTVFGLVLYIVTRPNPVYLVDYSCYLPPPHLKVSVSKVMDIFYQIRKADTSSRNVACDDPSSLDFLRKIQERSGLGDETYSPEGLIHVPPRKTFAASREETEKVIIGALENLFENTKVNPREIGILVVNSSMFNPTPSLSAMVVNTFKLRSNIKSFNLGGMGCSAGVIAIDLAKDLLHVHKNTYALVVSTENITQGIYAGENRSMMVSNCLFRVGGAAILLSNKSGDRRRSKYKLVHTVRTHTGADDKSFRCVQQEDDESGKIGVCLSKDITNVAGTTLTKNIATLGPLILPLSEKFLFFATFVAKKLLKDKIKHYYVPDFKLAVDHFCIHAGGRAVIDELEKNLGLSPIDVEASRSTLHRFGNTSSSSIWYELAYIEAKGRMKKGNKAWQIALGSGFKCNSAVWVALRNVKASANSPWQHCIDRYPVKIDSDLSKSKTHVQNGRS

[4] = test system: grass and broadleaf weeds; conditions: at lower application rates compared with other commercial herbicides

SMILES | herbicidal activity [1] | inhibition of VLCFAE activity [2] | inhibition of VLCFAE activity [3] | herbicidal activity [4]
CCOc1cc(Cl)c(CS(=O)(=O)C2=NOC(C)(C)C2)cc1Cl [Fenoxasulfone, 3-[(2,5-dichloro-4-ethoxyphenyl)methylsulfonyl]-5,5-dimethyl-4H-1,2-oxazole] | excellent herbicidal activity | inhibited by fenoxasulfone in a time-independent manner | inhibited by fenoxasulfone in a time-dependent manner | –
Cn1nc(C(F)(F)F)c(CS(=O)(=O)C2=NOC(C)(C)C2)c1OC(F)F [Pyroxasulfone] | – | – | – | excellent herbicidal activity
